{"source": "patent US20070128217A1", "about": "(priority 2003, published 2007)", "key": {"[1]": {"system": "rabbit serum obtained by immunizing a rabbit with the SARS-CoV strain Frankfurt 1", "assay_type": "binding", "design": "Binding of a rabbit serum to linear peptides / Binding of a rabbit serum to looped peptides / Rabbit serum linear peptides / Rabbit serum looped peptides / Binding of a rabbit serum to linear peptides of protein N of SARS-CoV Urbani (Rabbit serum linear peptides) / Binding of a rabbit serum to looped/cyclic peptides of protein N of SARS-CoV Urbani (Rabbit serum looped peptides): unit not given here"}, "[2]": {"system": "control sera (pooled serum of ten healthy LUMC hospital workers; commercial negative donor pooled serum from the Dutch bloodbank)", "assay_type": "binding, human", "design": "Binding of Control serum LUMC to linear peptides / Binding of Control serum Blood-bank to linear peptides / Binding of Control serum LUMC to looped peptides / Binding of Control Serum Blood-Bank to Looped peptides / Binding of Control serum LUMC to linear peptides of the protein M of SARS-CoV Urbani / Binding of Control serum Blood-bank to linear peptides of the protein M of SARS-CoV Urbani / Binding of Control serum LUMC to looped peptides of the protein M of SARS-CoV Urbani / Binding of Control Serum Blood-Bank to Looped peptides of the protein M of SARS-CoV Urbani: unit not given here"}, "[3]": {"system": "antibodies in sera from SARS patients (sera 1a, 1b, 2, 6, 37, 62, London, SARS-yellow, SARS-green)", "assay_type": "binding, human", "design": "Binding of serum 6 to linear peptides of protein X1 of SARS-CoV Urbani / Binding of serum 37 to linear peptides of protein X1 of SARS-CoV Urbani / Binding of serum 6 to looped/cyclic peptide (PEPSCAN-ELISA) / Binding of serum 37 to looped/cyclic peptide (PEPSCAN-ELISA) / Binding of serum 37 to looped/cyclic peptides of protein X1 of SARS-CoV Urbani / Binding of serum 6 to linear peptides of protein X2 / Binding of serum 37 to linear peptides of protein X2 / Binding of serum 37 to looped/cyclic peptides of protein X2 of SARS-CoV Urbani / Binding of serum 6 to linear peptides of protein M of SARS-CoV Urbani / Binding of serum 37 to linear peptides of protein M of SARS-CoV Urbani / Binding of serum 6 to looped/cyclic peptides of protein M of SARS-CoV Urbani / Binding of serum 37 to looped/cyclic peptides of protein M of SARS-CoV Urbani / Binding of serum 6 to linear peptides of protein X3 of SARS-CoV Urbani / Binding of serum 37 to linear peptides of protein X3 of SARS-CoV Urbani / Binding of serum 37 to looped/cyclic peptides of protein X3 of SARS-CoV Urbani / Binding of serum 6 to linear peptides of protein X4 of SARS-CoV Urbani / Binding of serum 37 to linear peptides of protein X4 of SARS-CoV Urbani / Binding of serum 37 to looped/cyclic peptides of protein X4 of SARS-CoV Urbani / Binding of serum 6 to linear peptides of protein X5 of SARS-CoV Urbani / Binding of serum 37 to linear peptides of protein X5 of SARS-CoV Urbani / Binding of serum 37 to looped/cyclic peptides of protein X5 of SARS-CoV Urbani / Binding of serum 6 to linear peptides of protein N of SARS-CoV Urbani / Binding of serum 37 to linear peptides of protein N of SARS-CoV Urbani / Binding of serum 6 to linear peptide (PEPSCAN-ELISA) / Binding of serum 1a to looped/cyclic peptides of protein N of SARS-CoV Urbani / Binding of serum 1b to looped/cyclic peptides of protein N of SARS-CoV Urbani / Binding of serum 2 to looped/cyclic peptides of protein N of SARS-CoV Urbani / Binding of serum 6 to looped/cyclic peptides of protein N of SARS-CoV Urbani / Binding of serum 37 to looped/cyclic peptides of protein N of SARS-CoV Urbani / Binding of serum 62 to looped/cyclic peptides of protein N of SARS-CoV Urbani / Binding of serum London to looped/cyclic peptides of protein N of SARS-CoV Urbani / Binding of serum SARS-green to looped/cyclic peptides of protein N of SARS-CoV Urbani: unit not given here"}}}
{"sequence": "TVYHITVSQIQLSLL", "values": [{"measurement": "Binding of a rabbit serum to linear peptides", "setting": "[1]", "value": 0.7}, {"measurement": "Binding of a rabbit serum to looped peptides", "setting": "[1]", "value": 0.3}, {"measurement": "Binding of Control Serum Blood-Bank to Looped peptides", "setting": "[2]", "value": 0.6}, {"measurement": "Binding of Control serum Blood-bank to linear peptides", "setting": "[2]", "value": 0.5}, {"measurement": "Binding of Control serum LUMC to linear peptides", "setting": "[2]", "value": 0.5}, {"measurement": "Binding of Control serum LUMC to looped peptides", "setting": "[2]", "value": 0.5}, {"measurement": "Binding of serum 1a to linear peptides of protein X2", "setting": "[3]", "value": 0.6}, {"measurement": "Binding of serum 1a to looped/cyclic peptides of protein X2 of SARS-CoV Urbani", "setting": "[3]", "value": 0.4}, {"measurement": "Binding of serum 1b to linear peptides of protein X2", "setting": "[3]", "value": 0.5}, {"measurement": "Binding of serum 1b to looped/cyclic peptides of protein X2 of SARS-CoV Urbani", "setting": "[3]", "value": 0.4}, {"measurement": "Binding of serum 2 to linear peptides of protein X2", "setting": "[3]", "value": 0.5}, {"measurement": "Binding of serum 2 to looped/cyclic peptides of protein X2 of SARS-CoV Urbani", "setting": "[3]", "value": 0.3}, {"measurement": "Binding of serum 6 to linear peptides of protein X2", "setting": "[3]", "value": 0.4}, {"measurement": "Binding of serum 6 to looped/cyclic peptides of protein X2 of SARS-CoV Urbani", "setting": "[3]", "value": 0.2}, {"measurement": "Binding of serum 37 to linear peptides of protein X2", "setting": "[3]", "value": 0.6}, {"measurement": "Binding of serum 37 to looped/cyclic peptides of protein X2 of SARS-CoV Urbani", "setting": "[3]", "value": 0.4}, {"measurement": "Binding of serum 62 to linear peptides of protein X2", "setting": "[3]", "value": 0.4}, {"measurement": "Binding of serum 62 to looped/cyclic peptides of protein X2 of SARS-CoV Urbani", "setting": "[3]", "value": 0.5}, {"measurement": "Binding of serum London to linear peptides of protein X2", "setting": "[3]", "value": 0.4}, {"measurement": "Binding of serum London to looped/cyclic peptides of protein X2 of SARS-CoV Urbani", "setting": "[3]", "value": 0.2}, {"measurement": "Binding of serum SARS-green to linear peptides of protein X2", "setting": "[3]", "value": 0.1}, {"measurement": "Binding of serum SARS-green to looped/cyclic peptides of protein X2 of SARS-CoV Urbani", "setting": "[3]", "value": 0.2}, {"measurement": "Binding of serum SARS-yellow to linear peptides of protein X2", "setting": "[3]", "value": 0.7}, {"measurement": "Binding of serum SARS-yellow to looped/cyclic peptides of protein X2 of SARS-CoV Urbani", "setting": "[3]", "value": 0.3}]}
{"sequence": "TYSTAWLCALGKVLP", "values": [{"measurement": "Rabbit serum linear peptides", "setting": "[1]", "value": 0.6}, {"measurement": "Rabbit serum looped peptides", "setting": "[1]", "value": 0.7}, {"measurement": "Binding of Control Serum Blood-Bank to Looped peptides", "setting": "[2]", "value": 0.5}, {"measurement": "Binding of Control serum Blood-bank to linear peptides", "setting": "[2]", "value": 0.9}, {"measurement": "Binding of Control serum LUMC to linear peptides", "setting": "[2]", "value": 0.5}, {"measurement": "Binding of Control serum LUMC to looped peptides", "setting": "[2]", "value": 0.6}, {"measurement": "Binding of serum 1a to linear peptides of protein X5 of SARS-CoV Urbani", "setting": "[3]", "value": 0.8}, {"measurement": "Binding of serum 1a to looped/cyclic peptides of protein X5 of SARS-CoV Urbani", "setting": "[3]", "value": 0.5}, {"measurement": "Binding of serum 1b to linear peptides of protein X5 of SARS-CoV Urbani", "setting": "[3]", "value": 0.6}, {"measurement": "Binding of serum 1b to looped/cyclic peptides of protein X5 of SARS-CoV Urbani", "setting": "[3]", "value": 0.3}, {"measurement": "Binding of serum 2 to linear peptides of protein X5 of SARS-CoV Urbani", "setting": "[3]", "value": 0.9}, {"measurement": "Binding of serum 2 to looped/cyclic peptides of protein X5 of SARS-CoV Urbani", "setting": "[3]", "value": 1.1}, {"measurement": "Binding of serum 6 to linear peptides of protein X5 of SARS-CoV Urbani", "setting": "[3]", "value": 0.6}, {"measurement": "Binding of serum 6 to looped/cyclic peptides of protein X5 of SARS-CoV Urbani", "setting": "[3]", "value": 0.4}, {"measurement": "Binding of serum 37 to linear peptides of protein X5 of SARS-CoV Urbani", "setting": "[3]", "value": 0.7}, {"measurement": "Binding of serum 37 to looped/cyclic peptides of protein X5 of SARS-CoV Urbani", "setting": "[3]", "value": 0.6}, {"measurement": "Binding of serum 62 to linear peptides of protein X5 of SARS-CoV Urbani", "setting": "[3]", "value": 0.8}, {"measurement": "Binding of serum 62 to looped/cyclic peptides of protein X5 of SARS-CoV Urbani", "setting": "[3]", "value": 0.8}, {"measurement": "Binding of serum London to linear peptides of protein X5 of SARS-CoV Urbani", "setting": "[3]", "value": 0.7}, {"measurement": "Binding of serum London to looped/cyclic peptides of protein X5 of SARS-CoV Urbani", "setting": "[3]", "value": 0.2}, {"measurement": "Binding of serum SARS-green to linear peptides of protein X5 of SARS-CoV Urbani", "setting": "[3]", "value": 0.7}, {"measurement": "Binding of serum SARS-green to looped/cyclic peptides of protein X5 of SARS-CoV Urbani", "setting": "[3]", "value": 0.3}, {"measurement": "Binding of serum SARS-yellow to linear peptides of protein X5 of SARS-CoV Urbani", "setting": "[3]", "value": 0.4}, {"measurement": "Binding of serum SARS-yellow to looped/cyclic peptides of protein X5 of SARS-CoV Urbani", "setting": "[3]", "value": 0.5}]}
